Laboratory results from PubChem BioAssay AID2060345 (Molecular Pharmacology Branch, DTP, NCI, 2025).

Test system: MALME-3M multicell spheroids, viability
Assay: Anticancer human tumor MALME-3M cell line growth inhibition [TAK];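 also: spheroids exposed to drugs for seven days before readout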;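 as to viability, T/C: 100% = DMSO vehicle control viability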
Settings: for IC50: curve of first compound; for viability, T/C: stronger effect = lower value
Method in brief: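 Spheroids of 60% malignant cells, 25% HUVEC and 15% hMSC were exposed to targeted agents combined with TAK-243 or ipatasertib. Concentrations started at or near clinical Cmax (10 microM if unknown) and descended in half-log steps.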

[1] = second compound 0.3 µM, first compound 0.0316 µM
[2] = second compound 0.3 µM, first compound 0.1 µM
[3] = second compound 0.3 µM, first compound 0.316 µM
[4] = second compound 0.3 µM, first compound 1 µM
[5] = second compound 0.949 µM, first compound 0.0316 µM
[6] = second compound 0.949 µM, first compound 0.1 µM
[7] = second compound 0.949 µM, first compound 0.316 µM
[8] = second compound 0.949 µM, first compound 1 µM
[9] = second compound 3 µM, first compound 0.0316 µM
[10] = second compound 3 µM, first compound 0.1 µM
[11] = second compound 3 µM, first compound 0.316 µM
[12] = second compound 3 µM, first compound 1 µM
[13] = second compound 9.49 µM, first compound 0.0316 µM
[14] = second compound 9.49 µM, first compound 0.1 µM
[15] = second compound 9.49 µM, first compound 0.316 µM
[16] = second compound 9.49 µM, first compound 1 µM
[17] = second compound 30 µM, first compound 0.0316 µM
[18] = second compound 30 µM, first compound 0.1 µM
[19] = second compound 30 µM, first compound 0.316 µM
[20] = second compound 30 µM, first compound 1 µM

SMILES	IC50 (second compound 0.3 µM) [nM]	IC50 (second compound 0.949 µM) [nM]	IC50 (second compound 3 µM) [nM]	IC50 (second compound 9.49 µM) [nM]	IC50 (second compound 30 µM) [nM]	viability, T/C [1] [%]	viability, T/C [2] [%]	viability, T/C [3] [%]	viability, T/C [4] [%]	viability, T/C [5] [%]	viability, T/C [6] [%]	viability, T/C [7] [%]	viability, T/C [8] [%]	viability, T/C [9] [%]	viability, T/C [10] [%]	viability, T/C [11] [%]	viability, T/C [12] [%]	viability, T/C [13] [%]	viability, T/C [14] [%]	viability, T/C [15] [%]	also measured
COc1c(OCCCN2CCOCC2)ccc2c3n(c(=NC(=O)c4cnc(N)nc4)nc12)CCN3 + CC(C)NCC(C(=O)N1CCN(c2ncnc3c2C(C)CC3O)CC1)c1ccc(Cl)cc1	125	109	66.2	41.4	5.9	76.3	62.2	23.1	12.3	76.2	55.3	22.3	11.7	63.1	43.6	16.7	10.6	54.2	31.3	15.3	viability, T/C (second compound 0.3 µM, first compound 0.00316 µM): 109%; viability, T/C (second compound 0.3 µM, first compound 0.01 µM): 96.3%; viability, T/C (second compound 0.949 µM, first compound 0.00316 µM): 98.4%; viability, T/C (second compound 0.949 µM, first compound 0.01 µM): 95%; viability, T/C (second compound 3 µM, first compound 0.00316 µM): 82.3%; viability, T/C (second compound 3 µM, first compound 0.01 µM): 81.8%; viability, T/C (second compound 9.49 µM, first compound 0.00316 µM): 69.8%; viability, T/C (second compound 9.49 µM, first compound 0.01 µM): 72.8%; viability, T/C [16]: 11.8%; viability, T/C (second compound 30 µM, first compound 0.00316 µM): 45.8%; viability, T/C (second compound 30 µM, first compound 0.01 µM): 56.7%; viability, T/C [17]: 39.3%; viability, T/C [18]: 26.5%; viability, T/C [19]: 10.6%; viability, T/C [20]: 6.33%
Cc1nc(NC(=O)N2CCCC2C(N)=O)sc1-c1ccnc(C(C)(C)C(F)(F)F)c1 (stereo not given) + CC(C)NCC(C(=O)N1CCN(c2ncnc3c2C(C)CC3O)CC1)c1ccc(Cl)cc1	> 10000	> 10000	> 10000	4310	355	110	104	97.7	88.1	107	103	86.3	90.7	94.3	88.6	79.3	75.2	79.4	73	67.1	viability, T/C (second compound 0.3 µM, first compound 3.16 µM): 72.5%; viability, T/C (second compound 0.3 µM, first compound 10 µM): 59.1%; viability, T/C (second compound 0.949 µM, first compound 3.16 µM): 75.5%; viability, T/C (second compound 0.949 µM, first compound 10 µM): 55.4%; viability, T/C (second compound 3 µM, first compound 3.16 µM): 73.8%; viability, T/C (second compound 3 µM, first compound 10 µM): 53%; viability, T/C [16]: 67.5%; viability, T/C (second compound 9.49 µM, first compound 3.16 µM): 54.8%; viability, T/C (second compound 9.49 µM, first compound 10 µM): 37.4%; viability, T/C [17]: 56.3%; viability, T/C [18]: 59.1%; viability, T/C [19]: 47.1%; viability, T/C [20]: 42%; viability, T/C (second compound 30 µM, first compound 3.16 µM): 40%; viability, T/C (second compound 30 µM, first compound 10 µM): 22%
